Results published in the NIST ThermoML archive (doi:10.1016/j.jct.2006.08.009).

Test: mn = molality of the nth substance listed, in mol/kg
Details: 350 kPa, Liquid; for apparent molar heat capacity: Extra sensitive DSC

OC[C@@H](O)[C@@H](O)[C@H](O)[C@@H](O)CO [D-sorbitol] + O
Details | apparent molar heat capacity [J/K/mol] | mass density [kg/m3]
278.15 K, m1 = 0.02 | 373 | 1001.46
278.15 K, m1 = 0.04 | 346.7 | 1002.79
278.15 K, m1 = 0.069 | 355.4 | 1005.09
278.15 K, m1 = 0.1997 | 360.1 | 1013.23
278.15 K, m1 = 0.4003 | 363.3 | 1025.52
278.15 K, m1 = 0.6991 | 367.7 | 1042.94
278.15 K, m1 = 0.9784 | 372.3 | 1057.65
278.15 K, m1 = 1.501 | 372.1 | 1082.71
278.15 K, m1 = 2.004 | 383.7 | 1104.6
283.15 K, m1 = 0.02 | 391 | 1001.14
283.15 K, m1 = 0.04 | 366.7 | 1002.47
283.15 K, m1 = 0.069 | 374.6 | 1004.71
283.15 K, m1 = 0.1997 | 378.8 | 1012.74
283.15 K, m1 = 0.4003 | 381.8 | 1024.88
283.15 K, m1 = 0.6991 | 385.6 | 1042.11
283.15 K, m1 = 0.9784 | 389.4 | 1056.73
283.15 K, m1 = 1.501 | 389.4 | 1081.57
283.15 K, m1 = 2.004 | 399.4 | 1103.19
288.15 K, m1 = 0.02 | 406 | 1000.48
288.15 K, m1 = 0.04 | 382.5 | 1001.81
288.15 K, m1 = 0.069 | 389.8 | 1003.99
288.15 K, m1 = 0.1997 | 393.7 | 1011.95
288.15 K, m1 = 0.4003 | 396.3 | 1023.96
288.15 K, m1 = 0.6991 | 399.5 | 1041
288.15 K, m1 = 0.9784 | 402.8 | 1055.55
288.15 K, m1 = 1.501 | 402 | 1080.23
288.15 K, m1 = 2.004 | 411.5 | 1101.6
293.15 K, m1 = 0.02 | 418 | –
293.15 K, m1 = 0.04 | 395.4 | –
293.15 K, m1 = 0.069 | 402.5 | –
293.15 K, m1 = 0.1997 | 406.4 | –
293.15 K, m1 = 0.4003 | 408.9 | –
293.15 K, m1 = 0.6991 | 411.6 | –
293.15 K, m1 = 0.9784 | 414.4 | –
293.15 K, m1 = 1.501 | 413.2 | –
293.15 K, m1 = 2.004 | 422 | –
298.15 K, m1 = 0.02 | 429 | 998.4
298.15 K, m1 = 0.04 | 406.9 | 999.67
298.15 K, m1 = 0.069 | 413.8 | 1001.72
298.15 K, m1 = 0.1997 | 417.4 | 1009.58
298.15 K, m1 = 0.4003 | 419.5 | 1021.39
298.15 K, m1 = 0.6991 | 421.9 | 1038.13
298.15 K, m1 = 0.9784 | 424.4 | 1052.5
298.15 K, m1 = 1.501 | 422.7 | 1076.86
298.15 K, m1 = 2.004 | 430.9 | 1097.81
303.15 K, m1 = 0.02 | 439 | –
303.15 K, m1 = 0.04 | 417.1 | –
303.15 K, m1 = 0.069 | 423.6 | –
303.15 K, m1 = 0.1997 | 426.9 | –
303.15 K, m1 = 0.4003 | 428.9 | –
303.15 K, m1 = 0.6991 | 430.9 | –
303.15 K, m1 = 0.9784 | 433.1 | –
303.15 K, m1 = 1.501 | 431.1 | –
303.15 K, m1 = 2.004 | 438.8 | –
308.15 K, m1 = 0.02 | 447 | 995.35
308.15 K, m1 = 0.04 | 425.7 | 996.6
308.15 K, m1 = 0.069 | 432 | 998.45
308.15 K, m1 = 0.1997 | 435.3 | 1006.4
308.15 K, m1 = 0.4003 | 437 | 1018.06
308.15 K, m1 = 0.6991 | 438.8 | 1034.6
308.15 K, m1 = 0.9784 | 440.7 | 1048.63
308.15 K, m1 = 1.501 | 438.4 | 1072.81
308.15 K, m1 = 2.004 | 445.8 | 1093.63
313.15 K, m1 = 0.02 | 455 | –
313.15 K, m1 = 0.04 | 432.5 | –
313.15 K, m1 = 0.069 | 439.5 | –
313.15 K, m1 = 0.1997 | 442.6 | –
313.15 K, m1 = 0.4003 | 444.2 | –
313.15 K, m1 = 0.6991 | 445.8 | –
313.15 K, m1 = 0.9784 | 447.5 | –
313.15 K, m1 = 1.501 | 445.1 | –
313.15 K, m1 = 2.004 | 452.2 | –
318.15 K, m1 = 0.02 | 462 | 991.53
318.15 K, m1 = 0.04 | 439.7 | 992.78
318.15 K, m1 = 0.069 | 446.1 | 994.56
318.15 K, m1 = 0.1997 | 449.1 | 1002.41
318.15 K, m1 = 0.4003 | 450.6 | 1013.97
318.15 K, m1 = 0.6991 | 452 | 1030.3
318.15 K, m1 = 0.9784 | 453.6 | 1044.19
318.15 K, m1 = 1.501 | 451 | 1068.13
318.15 K, m1 = 2.004 | 457.8 | 1088.73
323.15 K, m1 = 0.02 | 468 | –
323.15 K, m1 = 0.04 | 446 | –
323.15 K, m1 = 0.069 | 451.9 | –
323.15 K, m1 = 0.1997 | 455 | –
323.15 K, m1 = 0.4003 | 456.3 | –
323.15 K, m1 = 0.6991 | 457.6 | –
323.15 K, m1 = 0.9784 | 459 | –
323.15 K, m1 = 1.501 | 456.5 | –
323.15 K, m1 = 2.004 | 463 | –
328.15 K, m1 = 0.02 | 473 | 987.02
328.15 K, m1 = 0.04 | 450.8 | 988.24
328.15 K, m1 = 0.069 | 457.2 | 989.98
328.15 K, m1 = 0.1997 | 460.2 | 997.75
328.15 K, m1 = 0.4003 | 461.5 | 1009.18
328.15 K, m1 = 0.6991 | 462.7 | 1025.35
328.15 K, m1 = 0.9784 | 464 | 1039.16
328.15 K, m1 = 1.501 | 461.4 | 1062.99
328.15 K, m1 = 2.004 | 467.6 | 1083.37
333.15 K, m1 = 0.02 | 478 | –
333.15 K, m1 = 0.04 | 456.4 | –
333.15 K, m1 = 0.069 | 462 | –
333.15 K, m1 = 0.1997 | 464.9 | –
333.15 K, m1 = 0.4003 | 466.2 | –
333.15 K, m1 = 0.6991 | 467.3 | –
333.15 K, m1 = 0.9784 | 468.5 | –
333.15 K, m1 = 1.501 | 465.9 | –
333.15 K, m1 = 2.004 | 471.9 | –
338.15 K, m1 = 0.02 | 482 | 981.86
338.15 K, m1 = 0.04 | 460.5 | 983.14
338.15 K, m1 = 0.069 | 466.2 | 984.86
338.15 K, m1 = 0.1997 | 469.2 | 992.6
338.15 K, m1 = 0.4003 | 470.5 | 1003.94
338.15 K, m1 = 0.6991 | 471.5 | 1020.02
338.15 K, m1 = 0.9784 | 472.6 | 1033.71
338.15 K, m1 = 1.501 | 470.1 | 1057.29
338.15 K, m1 = 2.004 | 475.8 | 1077.49
343.15 K, m1 = 0.02 | 486 | –
343.15 K, m1 = 0.04 | 464 | –
343.15 K, m1 = 0.069 | 470 | –
343.15 K, m1 = 0.1997 | 473 | –
343.15 K, m1 = 0.4003 | 474.3 | –
343.15 K, m1 = 0.6991 | 475.3 | –
343.15 K, m1 = 0.9784 | 476.3 | –
343.15 K, m1 = 1.501 | 473.9 | –
343.15 K, m1 = 2.004 | 479.3 | –
348.15 K, m1 = 0.02 | 489 | 976.44
348.15 K, m1 = 0.04 | 467.7 | 977.62
348.15 K, m1 = 0.069 | 473.3 | 979.35
348.15 K, m1 = 0.1997 | 476.4 | 987.03
348.15 K, m1 = 0.4003 | 477.7 | 998.25
348.15 K, m1 = 0.6991 | 478.6 | 1014.26
348.15 K, m1 = 0.9784 | 479.7 | 1027.75
348.15 K, m1 = 1.501 | 477.3 | 1051.07
348.15 K, m1 = 2.004 | 482.4 | 1071.23
353.15 K, m1 = 0.02 | 492 | –
353.15 K, m1 = 0.04 | 472.1 | –
353.15 K, m1 = 0.069 | 476.2 | –
353.15 K, m1 = 0.1997 | 479.4 | –
353.15 K, m1 = 0.4003 | 480.6 | –
353.15 K, m1 = 0.6991 | 481.6 | –
353.15 K, m1 = 0.9784 | 482.6 | –
353.15 K, m1 = 1.501 | 480.4 | –
353.15 K, m1 = 2.004 | 485.2 | –
358.15 K, m1 = 0.02 | 494 | 969.9
358.15 K, m1 = 0.04 | 480.2 | 971.49
358.15 K, m1 = 0.069 | 478.7 | 972.88
358.15 K, m1 = 0.1997 | 481.7 | 980.97
358.15 K, m1 = 0.4003 | 483 | 991.75
358.15 K, m1 = 0.6991 | 483.9 | 1007.73
358.15 K, m1 = 0.9784 | 484.8 | 1021.37
358.15 K, m1 = 1.501 | 483.2 | 1044.38
358.15 K, m1 = 2.004 | 487.4 | 1064.53
363.15 K, m1 = 0.02 | 495 | –
363.15 K, m1 = 0.04 | 508 | –
363.15 K, m1 = 0.069 | 479.6 | –
363.15 K, m1 = 0.1997 | 482.5 | –
363.15 K, m1 = 0.4003 | 483.7 | –
363.15 K, m1 = 0.6991 | 484.6 | –
363.15 K, m1 = 0.9784 | 485.5 | –
363.15 K, m1 = 1.501 | 485.7 | –
363.15 K, m1 = 2.004 | 487.9 | –
368.15 K, m1 = 0.02 | – | 963.45
368.15 K, m1 = 0.04 | – | 964.68
368.15 K, m1 = 0.069 | – | 966.4
368.15 K, m1 = 0.1997 | – | 974.03
368.15 K, m1 = 0.4003 | – | 985.25
368.15 K, m1 = 0.6991 | – | 1001.2
368.15 K, m1 = 0.9784 | – | 1014.47
368.15 K, m1 = 1.501 | – | 1037.56
368.15 K, m1 = 2.004 | – | 1057.91
